Where a SMILES comes first, the peptide text is derived from it.

The record followed here is patent US20220282217A1, “COMPOSITIONS AND METHODS FOR PREPARING T CELL COMPOSITIONS AND USES THEREOF” (priority 2019, published 2022).

For the first experiment, the target named is HLA-A02.01 (Homo sapiens, UniProt P04439, D140Y/D185E/D98H/E176V/E277Q/G131W/G231S/I119V/I121R/I166T/I218V/L300P/L318F/N151K/N90K/P208A/P217A/Q86G/Q94H/R138H/R169H/T345S). The experiment in a line: Class I MHC peptide binding affinity (displacement of radiolabeled reference peptide). The following applies: BTK C481S peptide; HLA Allele A02.01; read-out: Affinity. Here is the method:
In brief, MHCI complexes were prepared and bound to radiolabeled reference peptides. Peptides were incubated at varying concentrations with these complexes for 2 days, and the amount of remaining radiolabeled peptide bound to […] was measured using size exclusion gel-filtration.
In the case of `CSCC[C@H](N)C(=O)N[C@@H](C)C(=O)N[C@@H](CC(N)=O)C(=O)NCC(=O)N[C@@H](CO)C(=O)N[C@@H](CC(C)C)C(=O)N[C@@H](CC(C)C)C(=O)N[C@@H](CC(N)=O)C(=O)N[C@@H](Cc1ccc(O)cc1)C(=O)N[C@@H](CC(C)C)C(=O)O`, the IC50 was determined as 1010 nM.

The same experiment, now with this note: EGFR T790M peptides; HLA allele A02.01; read-out: Affinity.
On to `CC[C@H](C)[C@H](NC(=O)[C@@H](N)CC(C)C)C(=O)N[C@@H](CCSC)C(=O)N[C@@H](CCC(N)=O)C(=O)N[C@@H](CC(C)C)C(=O)N[C@@H](CCSC)C(=O)N1CCC[C@H]1C(=O)N[C@@H](Cc1ccccc1)C(=O)NCC(=O)O` (H-LIMQLMPFG-OH; N-terminus and C-terminus assumed), for which the Kd worked out at 3340 nM.

The same experiment, now with this note: Observed Affinity (IC50; (nM)), allele A02.01.
`CC[C@H](C)[C@H](N)C(=O)N[C@H](C(=O)N[C@H](C(=O)N[C@@H](CCC(=O)O)C(=O)N[C@@H](Cc1ccccc1)C(=O)N[C@@H](CCSC)C(=O)N[C@H](C(=O)N[C@@H](Cc1ccc(O)cc1)C(=O)NCC(=O)O)[C@@H](C)O)[C@@H](C)CC)[C@@H](C)CC` (H-IIIEFMTYG-OH; N-terminus and C-terminus assumed) yielded an IC50 of 779 nM. `CC[C@H](C)[C@H](NC(=O)[C@@H]1CCCN1C(=O)[C@H](CC(C)C)NC(=O)[C@@H](N)CC(C)C)C(=O)N1CCC[C@H]1C(=O)N1CCC[C@H]1C(=O)N[C@@H](CC(C)C)C(=O)N[C@@H](CO)C(=O)N1CCC[C@H]1C(=O)N[C@@H](CO)C(=O)O`: the IC50 stood at 449 nM.

Regarding `CC[C@H](C)[C@H](NC(=O)[C@H](CC(N)=O)NC(=O)[C@H](CCSC)NC(=O)[C@@H](N)Cc1c[nH]cn1)C(=O)N[C@@H](C)C(=O)N[C@@H](CC(N)=O)C(=O)N[C@@H](CC(C)C)C(=O)N[C@@H](CC(C)C)C(=O)NCC(=O)N[C@@H](C)C(=O)O` (H-HMNIANLLGA-OH; N-terminus and C-terminus assumed), the IC50 worked out at 430 nM. On the same count and under the same terms, for `CC(C)C[C@H](NC(=O)[C@@H](N)CC(C)C)C(=O)N[C@@H](CO)C(=O)N[C@H](C(=O)N1CCC[C@H]1C(=O)N1CCC[C@H]1C(=O)N[C@@H](CC(C)C)C(=O)N[C@@H](CO)C(=O)N1CCC[C@H]1C(=O)N[C@@H](CO)C(=O)O)[C@@H](C)O` (H-LLSTPPLSPS-OH; N-terminus and C-terminus assumed) the value was 1770 nM.

Staying with this experiment, now noted: allele A02.01; read-out: Observed Affinity (IC50; (nM)).
For `CC[C@H](C)[C@H](NC(=O)[C@@H](NC(=O)[C@H](CC(C)C)NC(=O)[C@@H](N)Cc1ccc(O)cc1)C(C)C)C(=O)N[C@@H](CCC(N)=O)C(=O)N[C@@H](CC(C)C)C(=O)N[C@@H](CCC(N)=O)C(=O)N[C@@H](CC(=O)O)C(=O)N[C@@H](CCCCN)C(=O)N[C@@H](Cc1ccccc1)C(=O)O` (H-YLVIQLQDKF-OH), the IC50 was determined as 2060 nM. On to `CC(C)C[C@H](NC(=O)[C@H](CC(C)C)NC(=O)[C@H](CC(=O)O)NC(=O)[C@H](CC(N)=O)NC(=O)[C@H](CC(C)C)NC(=O)[C@@H]1CCCN1C(=O)[C@@H](NC(=O)[C@@H](NC(=O)[C@@H](N)CC(N)=O)C(C)C)C(C)C)C(=O)O` (H-NVVPLNDLL-OH; N-terminus and C-terminus assumed), for which the IC50 worked out at 2900 nM. The same measure, in the same setting: then `CC(C)C[C@H](NC(=O)[C@H](CO)NC(=O)[C@@H](NC(=O)[C@@H](NC(=O)[C@H](CO)NC(=O)[C@H](CO)NC(=O)[C@H](Cc1c[nH]c2ccccc12)NC(=O)[C@H](CCC(N)=O)NC(=O)[C@@H](N)CCCCN)C(C)C)[C@@H](C)O)C(=O)O` (H-KQWSSVTSL-OH; N-terminus and C-terminus assumed), with 26.5 nM. Regarding `CC[C@H](C)[C@H](NC(=O)[C@@H](N)CC(C)C)C(=O)N[C@@H](CCSC)C(=O)N[C@@H](CCC(N)=O)C(=O)N[C@@H](CC(C)C)C(=O)N[C@@H](CCSC)C(=O)N1CCC[C@H]1C(=O)N[C@@H](Cc1ccccc1)C(=O)NCC(=O)O` (H-LIMQLMPFG-OH; N-terminus and C-terminus assumed), the IC50 turned out to be 3510 nM. As for `CC(C)C[C@H](NC(=O)[C@H](CCCNC(=N)N)NC(=O)[C@@H](NC(=O)[C@H](CC(C)C)NC(=O)[C@H](CO)NC(=O)[C@@H](N)CCCCN)C(C)C)C(=O)N[C@@H](CO)C(=O)N[C@@H](CO)C(=O)N[C@@H](CS)C(=O)N[C@H](C(=O)O)C(C)C` (H-KSLVRLSSCV-OH; N-terminus and C-terminus assumed), the IC50 was 280 nM. As for `CC[C@H](C)[C@H](NC(=O)[C@@H]1CCCN1C(=O)[C@H](CCCNC(=N)N)NC(=O)[C@H](CCC(N)=O)NC(=O)[C@H](CC(N)=O)NC(=O)[C@H](CCSC)NC(=O)CNC(=O)CNC(=O)[C@H](CCSC)NC(=O)[C@@H](N)CS)C(=O)O`, the IC50 was 3670 nM. As for `CC[C@H](C)[C@H](NC(=O)[C@H](Cc1ccc(O)cc1)NC(=O)[C@H](CCC(=O)O)NC(=O)CNC(=O)[C@H](CO)NC(=O)[C@H](Cc1ccccc1)NC(=O)[C@H](C)N)C(=O)N1CCC[C@H]1C(=O)N[C@H](C(=O)N[C@H](C(=O)O)C(C)C)[C@@H](C)O` (H-AFSGEYIPTV-OH; N-terminus and C-terminus assumed), the IC50 amounted to 781 nM. As to `CC[C@H](C)[C@H](NC(=O)[C@@H](N)CCCCN)C(=O)N[C@H](C(=O)N[C@@H](CCC(=O)O)C(=O)N[C@@H](CCC(N)=O)C(=O)N[C@@H](CCC(=O)O)C(=O)N[C@@H](CCCCN)C(=O)N[C@@H](CC(=O)O)C(=O)N[C@@H](Cc1ccccc1)C(=O)N[C@@H](CC(C)C)C(=O)O)[C@@H](C)O` (H-KITEQEKDFL-OH; N-terminus and C-terminus assumed), the IC50 was 1400 nM. With `CC[C@H](C)[C@H](NC(=O)[C@H](CCC(N)=O)NC(=O)[C@H](Cc1c[nH]c2ccccc12)NC(=O)[C@H](Cc1ccccc1)NC(=O)CNC(=O)[C@H](CS)NC(=O)[C@H](CC(C)C)NC(=O)[C@H](C)NC(=O)[C@@H](N)Cc1ccccc1)C(=O)O` (H-FALCGFWQI-OH; N-terminus and C-terminus assumed), the IC50 came out at 0.4 nM.

As to `CC(C)C[C@H](NC(=O)[C@@H](N)C(C)C)C(=O)N[C@H](C(=O)N[C@H](C(=O)N[C@H](C(=O)N[C@@H](CO)C(=O)N[C@H](C(=O)N[C@@H](CC(=O)O)C(=O)N[C@H](C(=O)O)C(C)C)[C@@H](C)O)[C@@H](C)O)C(C)C)[C@@H](C)O` (H-VLTVTSTDV-OH), the IC50 was 295 nM. Still for that read-out and setting: then `CC[C@H](C)[C@H](N)C(=O)N[C@@H](CC(C)C)C(=O)N[C@@H](CCSC)C(=O)N[C@@H](CCC(=O)O)C(=O)N[C@@H](CC(C)C)C(=O)N[C@@H](CCSC)C(=O)N[C@@H](C)C(=O)NCC(=O)NCC(=O)N[C@@H](CC(=O)O)C(=O)O` (H-ILMELMAGGD-OH; N-terminus and C-terminus assumed), with 3450 nM. With `CSCC[C@H](N)C(=O)N[C@@H](C)C(=O)N[C@@H](CC(N)=O)C(=O)NCC(=O)N[C@@H](CO)C(=O)N[C@@H](CC(C)C)C(=O)N[C@@H](CC(C)C)C(=O)N[C@@H](CC(N)=O)C(=O)N[C@@H](Cc1ccc(O)cc1)C(=O)N[C@@H](CC(C)C)C(=O)O`, the IC50 was found to be 1080 nM. Turning to `CSCC[C@H](NC(=O)[C@H](CCCCN)NC(=O)CNC(=O)[C@H](CC(N)=O)NC(=O)[C@H](CCC(N)=O)NC(=O)[C@@H](N)Cc1ccccc1)C(=O)N[C@@H](C)C(=O)N[C@@H](CC(C)C)C(=O)N[C@@H](CO)C(=O)O` [FQNGKMALS] (H-FQNGKMALS-OH; N-terminus and C-terminus assumed), the IC50 turned out to be 3280 nM. Consider `CC(C)C[C@H](NC(=O)[C@H](C)N)C(=O)N[C@@H](Cc1c[nH]c2ccccc12)C(=O)N[C@@H](CCC(=O)O)C(=O)N[C@@H](CS)C(=O)N[C@@H](CO)C(=O)N[C@@H](CC(C)C)C(=O)N1CCC[C@H]1C(=O)N[C@@H](CCC(N)=O)C(=O)N[C@@H](C)C(=O)O` (H-ALWECSLPQA-OH; N-terminus and C-terminus assumed), for which the IC50 was determined as 9 nM. On the same count and under the same terms, then `CC[C@H](C)[C@H](NC(=O)[C@H](CO)NC(=O)[C@H](CC(C)C)NC(=O)CN)C(=O)N[C@@H](CO)C(=O)N[C@@H](CS)C(=O)N[C@H](C(=O)N[C@H](C(=O)N[C@@H](CC(C)C)C(=O)O)[C@@H](C)O)[C@@H](C)O` (H-GLSISCTTL-OH; N-terminus and C-terminus assumed), with 114 nM.
